In patent publication US6831039B1, “3-(heterocyclyl)-substituted benzolpyrazols” (BASF Aktiengesellschaft, priority 1998, dated 2004):

Tests used:
Test in all cases: Greenhouse post-emergence herbicidal test
lamb's-quarters = type: in vivo, Chenopodium album; conditions: 0.5 or 0.25 kg/ha
Source text: (§1) The seeds of the test plants were sown separately for each species. For the post-emergence treatment, the test plants were first grown to a height of 3 to 15 cm, depending on the plant habit, and only then treated with the active compounds which had been suspended or emulsified in water. The test plants were, for this purpose, either sown directly and grown in the same containers, or they were first grown separately as seedlings and transplanted into the test containers a few days prior to treatment. The application rate for the post-emergence treatment was 0.5, 0.25, 0.125 or 0.0625 kg of a.s. (active substance)/ha. Depending on the species, the plants were kept at 10-25° C. or 20-35° C. The test period extended over 2 to 4 weeks. During this time, the plants were tended, and their response to the individual treatments was evaluated. The evaluation was carried out using a scale from 0 to 100. 100 means no emergence of the plants, or complete destruction of at least the aerial parts and 0 means no damage, or normal course of growth. The plants used in the greenhouse experiments were of the following species: [table]

barnyard grass = type: in vivo, Echinochloa crus galli; conditions: 0.5 or 0.25 kg/ha
Source text: as §1

black nightshade = type: in vivo, Solanum nigrum; conditions: 0.5 or 0.25 kg/ha
Source text: as §1

green foxtail = type: in vivo, Setaria viridis
Source text: as §1

pigweed = type: in vivo, Amaranthus retroflexus; conditions: 0.25 or 0.125 kg/ha
Source text: as §1

wild oat = type: in vivo, Avena fatua; conditions: 0.25 or 0.125 kg/ha
Source text: as §1

white mustard = type: in vivo, Sinapis alba; conditions: 0.25 or 0.125 kg/ha
Source text: as §1

lady's-thumb = type: in vivo, Polygonum persicaria; conditions: 0.25 or 0.125 kg/ha
Source text: as §1

Cc1nn(C(C)(C)C)c(O)c1C(=O)c1ccc(S(C)(=O)=O)c(C2=NOCC2)c1C [Compound 2.8]
very good: post-emergence control of harmful plants (lamb's-quarters) | post-emergence control of harmful plants (barnyard grass) | post-emergence control of harmful plants (black nightshade) | post-emergence control of harmful plants (green foxtail; 0.5 or 0.25 kg/ha)

Cc1c(C(=O)c2cnn(C(C)C)c2O)ccc(S(C)(=O)=O)c1C1=NOCC1 [Compound 2.9]
very good: post-emergence action on grasses and weeds (pigweed) | post-emergence action on grasses and weeds (green foxtail; 0.25 or 0.125 kg/ha) | post-emergence action on grasses and weeds (wild oat) | post-emergence action on grasses and weeds (white mustard) | post-emergence action on grasses and weeds (lady's-thumb)
